Data taken from US20040048830A1, “Use of cortisol-sequestering agents for the treatment of hypercortisolaemia related disorders” (priority 2000, published 2004).
Read-outs that look alike come from different tables or passages of the source. Marks after values point to notes of the source that are not given here.

Experiments:
[1] = 1:1 cyclodextrin:cortisol complex in water, reported values; cited from earlier work
[2] = Isothermal titration calorimetry (microcalorimetry) of cortisol complex; assay type: binding; conditions: 1:1 cortisol complex, microcalorimetry / ITC
Text: The interaction between a sequestering agent and cortisol can be analyzed by physical methods such as nuclear magnetic resonance spectroscopy (nmr) (Fielding, L.: Tetrahedron, 56 (34), 6151-6170, 2000) and microcalorimetry (Stoedeman M. and Wadsoe I.: Pure Appl. Chem., 67(7), 1059-68, 1995). These techniques also allow one to establish the selectivity of the binding to cortisol in comparison with the other endogenous steroidal compounds.
The association constants for complex formation are determined by performing a titration of cyclodextrin into cortisol and recording the UV spectrum as a function of the cyclodextrin/steroid ratio. The change in absorption of cortisol at 246 nm (Δ A) upon stepwise addition of cyclodextrin is recorded. The best fit line to the data give Ka for the cortisol-cyclodextrin complex (Liu Y, Li, B, You C-C, Wada, T, Inoue Y. J. Org. Chem., 2001, 66, 225-232). The UV methodology provides a fairly good estimate of the association constant when this constant is below 10^5 M^−1. The results used for the determination of the association constant for the binding of cortisol to γ-cyclodextrin, β-cyclodextrin and to 2 γ-cyclodextrin derivatives are shown in FIG. 1. […] This is because the chromophore in cortisol is relatively weak and instrument signal to noise issues prevented the preparation of sufficiently dilute solutions. […] The high cortisol binding constant for these γ-cyclodextrin derivatives indicates these derivatives to be potentially very active cortisol sequestering agents. An alternative, but more laborious, method for the determination of the cortisol association constant is by isothermal titration calorimetry (see Wiseman et al. […], 131-137), which can be used to determine the high Ka's more accurately.

[3] = UV titration of cyclodextrin into cortisol (absorbance at 246 nm); assay type: binding; conditions: 1:1 cortisol:γ-cyclodextrin complex
Text: UV-visible spectroscopy was used to monitor the complex formation between cortisol and a library of cyclodextrin derivatives. The UV spectrum of cortisol contains an absorption band having a maximum at 246 nm. The intensity of the UV line at 246 nm decreases upon complexation of cortisol by addition of a cyclodextrin host molecule. The decrease in the absorbance of an aqueous solution of the guest molecule (cortisol) upon addition of a typical host molecule (like a cyclodextrin derivative) is taken as evidence that the guest molecule has moved from the polar aqueous environment to the usually less polar environment of the interior of the host molecule. The methodology is well established in the field of supramolecular chemistry (Tsukube, H. et al. In Comprehensive Supramolecular Chemistry: Physical Methods in Supramolecular Chemistry. Davies J E D, Ripmeester J A, (Eds) Elsevier, Oxford, 1996: Vol 8, pp 425-483).
The association constants for complex formation are determined by performing a titration of cyclodextrin into cortisol and recording the UV spectrum as a function of the cyclodextrin/steroid ratio. The change in absorption of cortisol at 246 nm (Δ A) upon stepwise addition of cyclodextrin is recorded. The best fit line to the data give Ka for the cortisol-cyclodextrin complex (Liu Y, Li, B, You C-C, Wada, T, Inoue Y. J. Org. Chem., 2001, 66, 225-232). […]

[4] = Urinary excretion of endogenous cortisol in the guinea pig; assay type: in vivo; conditions: iv 5 mg/250 g
Protocol: In guinea piogs cortisol is endogenously produced, the basal level of which is approximately 120-150 ng/ml in plasma.

[5] = Urinary excretion of exogenous cortisol in the rat; assay type: in vivo, Lister hooded rats
Protocol: Two groups of four rats (Lister hooded rats, 300-320 g) were administered (intravenously) either […] of cortisol alone (Group I) or cortisol followed after 15 minutes by 6-per-deoxy-6-per-(2,3-dihydroxypropylthio)-γ-cyclodextrin (Org 26276) as a single intravenous dose of 20 mg/kg (Group II). Each rat was placed in a metabolic cage for the collection of urine. Urine samples were collected for the first 5 hours and thereafter for the remainder of 24 hours The collected urine samples were subjected to HPLC-MS (high pressure liquid chromatograpy on a Phenomenex Luna (50×2 mm; […]) column coupled to a PE Sciex API 3000 Mass Spectrometer). The limit of quantitation for cortisol in urine was 2.5 ng/ml and 10 ng/ml in plasma.

For `OC[C@H]1O[C@@H]2O[C@H]3[C@H](O)[C@@H](O)[C@@H](O[C@H]4[C@H](O)[C@@H](O)[C@@H](O[C@H]5[C@H](O)[C@@H](O)[C@@H](O[C@H]6[C@H](O)[C@@H](O)[C@@H](O[C@H]7[C@H](O)[C@@H](O)[C@@H](O[C@H]1[C@H](O)[C@H]2O)O[C@@H]7CO)O[C@@H]6CO)O[C@@H]5CO)O[C@@H]4CO)O[C@@H]3CO` [α-CD], the “Association Constant (Ka)” value [1] is given as 57 M⁻¹.
With `O=C(O)c1ccc(SCC2OC3OC4C(CSc5ccc(C(=O)O)cc5)OC(OC5C(CSc6ccc(C(=O)O)cc6)OC(OC6C(CSc7ccc(C(=O)O)cc7)OC(OC7C(CSc8ccc(C(=O)O)cc8)OC(OC8C(CSc9ccc(C(=O)O)cc9)OC(OC9C(CSc%10ccc(C(=O)O)cc%10)OC(OC%10C(CSc%11ccc(C(=O)O)cc%11)OC(OC2C(O)C3O)C(O)C%10O)C(O)C9O)C(O)C8O)C(O)C7O)C(O)C6O)C(O)C5O)C(O)C4O)cc1` (centres unmarked) [6-per-deoxy-6-per-(4-carboxyphenyl)thio-γ-cyclodextrin] the “Association Constant (Ka)” value [2] was “˜80,000^b M^−1”.
In the case of Hydroxypropyl-β-CD, the “Association Constant (Ka)” value [1] is listed as 900 to 1000 M⁻¹.
In the case of `O=C(O)CCSC[C@H]1O[C@@H]2O[C@H]3[C@H](O)[C@@H](O)[C@@H](O[C@H]4[C@H](O)[C@@H](O)[C@@H](O[C@H]5[C@H](O)[C@@H](O)[C@@H](O[C@H]6[C@H](O)[C@@H](O)[C@@H](O[C@H]7[C@H](O)[C@@H](O)[C@@H](O[C@H]8[C@H](O)[C@@H](O)[C@@H](O[C@H]9[C@H](O)[C@@H](O)[C@@H](O[C@H]1[C@H](O)[C@H]2O)O[C@@H]9CSCCC(=O)O)O[C@@H]8CSCCC(=O)O)O[C@@H]7CSCCC(=O)O)O[C@@H]6CSCCC(=O)O)O[C@@H]5CSCCC(=O)O)O[C@@H]4CSCCC(=O)O)O[C@@H]3CSCCC(=O)O` [6-per-deoxy-6-per-(2-carboxyethyl)thio-γ-cyclodextrin], the Ka [3] is reported as ~30,000 M^−1, the “Association Constant (Ka)” value [2] is reported as ~40,000 M^−1 and the “Association Constant (Ka)” value ([2]; listed as Per-6-deoxy-per-6-(2-carboxyethyl)thio-γ-cyclodextrin) is reported as 40000* M^−1.
For Per-6-acetyl-β-CD, the “Association Constant (Ka)” value [1] is listed as 3920 M⁻¹.
In the case of “6-per-deoxy-6-per-(2,3-dihydroxypropylthio)-γ-cyclodextrin [Org 26276]”, the Ka ([3]; listed as Example 1) is reported as >100,000^a M^−1, the “increase of amount of urinary cortisol excreted during 24 hours compared to the control group” value [4] is reported as 3 fold and the “enhancement of excretion of cortisol compared to the control group” value ([5]; 20 mg/kg iv, versus group that received cortisol alone) is reported as “approximately 10 fold”. For the same compound, the “mean cortisol level in the urine” value ([5]; iv cortisol followed after 15 minutes by 20 mg/kg iv, urine collected in the first 5 hours) was 111 ± 78 ng/mL.
In the case of Per-2,6-methyl-β-CD, the “Association Constant (Ka)” value [1] is given as 5910 M⁻¹.
For `OC[C@H]1O[C@@H]2O[C@H]3[C@H](O)[C@@H](O)[C@@H](O[C@H]4[C@H](O)[C@@H](O)[C@@H](O[C@H]5[C@H](O)[C@@H](O)[C@@H](O[C@H]6[C@H](O)[C@@H](O)[C@@H](O[C@H]7[C@H](O)[C@@H](O)[C@@H](O[C@H]8[C@H](O)[C@@H](O)[C@@H](O[C@H]9[C@H](O)[C@@H](O)[C@@H](O[C@H]1[C@H](O)[C@H]2O)O[C@@H]9CO)O[C@@H]8CO)O[C@@H]7CO)O[C@@H]6CO)O[C@@H]5CO)O[C@@H]4CO)O[C@@H]3CO` [γ-CD, γ-cyclodextrin], the “Association Constant (Ka)” value [1] is listed as 2240 M⁻¹.
For `OC[C@H]1O[C@@H]2O[C@H]3[C@H](O)[C@@H](O)[C@@H](O[C@H]4[C@H](O)[C@@H](O)[C@@H](O[C@H]5[C@H](O)[C@@H](O)[C@@H](O[C@H]6[C@H](O)[C@@H](O)[C@@H](O[C@H]7[C@H](O)[C@@H](O)[C@@H](O[C@H]8[C@H](O)[C@@H](O)[C@@H](O[C@H]1[C@H](O)[C@H]2O)O[C@@H]8CO)O[C@@H]7CO)O[C@@H]6CO)O[C@@H]5CO)O[C@@H]4CO)O[C@@H]3CO` [β-CD, β-cyclodextrin], the “Association Constant (Ka)” value [1] is listed as 1720 to 3000 M⁻¹.
